{"source": "patent US6017520A", "about": "“Penetration enhancement of topically applied therapeutic formulations” (Block Drug Company, Inc., priority 1997, dated 2000)", "experiment": "Penetration study, Bronaugh flow-through diffusion cell system (permeability coefficient Kp)", "settings": "0.5 percent ketoprofen in the presence of vitamin E"}
{"smiles": "CC(C(=O)O)c1cccc(C(=O)c2ccccc2)c1", "note": "(stereo not shown) [ketoprofen]", "values": [{"measurement": "penetration rate", "result": "greater than that of 1.0 percent ketoprofen without vitamin E"}]}
